In US20130261108A1, “COMPOSITIONS AND METHODS FOR MODULATING FARNESOID X RECEPTORS” (IRM LLC, priority 2010, published 2013):

molecular target: T1, human Farnesoid X Receptor (FXR) ligand binding domain (Homo sapiens, UniProt Q96RI1); assay: Human GST-FXR LBD co-activator interaction assay (FXR HTRF assay); type: biochemical; details: GST-FXR LBD with biotin-labeled SRC-1 peptide, FRET/HTRF, 2.5 hours at room temperature; response relative to GW4064; read-out: FXR coactivator interaction assay (HTRF) (EC50)
T1 construct: purchased Invitrogen
T1 sequence (Q96RI1 193-472 isoform Q96RI1-2): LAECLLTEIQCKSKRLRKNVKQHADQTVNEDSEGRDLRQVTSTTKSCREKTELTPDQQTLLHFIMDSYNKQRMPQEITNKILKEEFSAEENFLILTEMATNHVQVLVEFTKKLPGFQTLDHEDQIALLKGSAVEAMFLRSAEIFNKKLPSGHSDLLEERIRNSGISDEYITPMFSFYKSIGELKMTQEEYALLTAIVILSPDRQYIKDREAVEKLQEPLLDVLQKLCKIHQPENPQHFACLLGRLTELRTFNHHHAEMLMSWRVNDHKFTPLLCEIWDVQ
From the text: Human GST-FXR LBD Co-Activator Interaction Assay.
The FXR HTRF assay is a biochemical assay measuring the interaction between FXR and a coactivator protein (SRC1). The ligand-induced interaction with a coactivator protein is a critical step in transcriptional activation by FXR. Thus, this is an assay designed to measure FXR agonist activity of compounds.
The ligand-dependent interaction between GST-FXR LBD and a peptide derived from Steroid Receptor Coactivator-1 (SRC-1) was monitored by Fluorescence Resonance Energy Transfer (FRET). […] Test compounds (in DMSO solution) and detection reagents (anti-GST-Cryptate labeled antibody and Streptavidin-XL665 conjugate; CisBio) were added in assay buffer containing 50 mM KF. Plates are incubated at room temperature in the dark for 2.5 hours before reading on an Envision (PerkinElmer) at 665 nm and 590 nm.
A negative control (without Streptavidin-XL665) was run with each assay and represented the background fluorescence. A reference FXR agonist, GW4064, was included in each experiment as positive control. The efficacy of each test compound was compared to that of GW4064. At each concentration, the relative activity of the test compound was expressed as Response %=(Rsample−RDMSO)/(Rpositive−RDMSO), where Rsample is the HTRF response (expressed in Delta F %) for the test compound, Rpositive is the maximal response for GW4064 at saturating concentrations, and RDMSO is the response for DMSO control. The EC50 values were calculated using GraphPad Prism (GraphPad Software) using non-linear regression curve fit (log(agonist) vs. response−variable slope (four parameters)).

Question: With `O=C(O)c1ccc2nc(N3CCC(OCc4c(C5CCCCC5)noc4C4CC4)CC3)sc2c1` [Example 2-15, 2-{4-[(3-cyclohexyl-5-cyclopropyl-1,2-oxazol-4-yl)methoxy]piperidin-1-yl}-1,3-benzothiazole-6-carboxylic acid] as the compound, how does the EC50 read?
Answer: 246 nM

Question: Which EC50 does the source give for `O=C(O)c1ccc2nc(N3CCC(OCc4c(C5CCCC5)noc4C4CC4)CC3)sc2c1` [Example 2-16, 2-{4-[(3-cyclopentyl-5-cyclopropyl-1,2-oxazol-4-yl)methoxy]piperidin-1-yl}-1,3-benzothiazole-6-carboxylic acid] here?
Answer: 263 nM

Question: `O=C(O)c1ccc2nc(N3CCC(OCc4c(C5CC6CCC5C6)noc4C4CC4)CC3)sc2c1` (stereo not drawn) [Example 2-17, 2-{4-[(3-{bicyclo[2.2.1]heptan-2-yl}-5-cyclopropyl-1,2-oxazol-4-yl)methoxy]piperidin-1-yl}-1,3-benzothiazole-6-carboxylic acid] was tested. Which EC50 did it give?
Answer: 423 nM

Question: How did the EC50 turn out when `CCOC(=O)c1ccc2nc(N3CCCC(OCc4c(-c5ccccc5OC(F)(F)F)noc4C4CC4)CC3)sc2c1` (stereo not drawn) [Example 3-1A, ethyl 2-[4-({5-cyclopropyl-3-[2-(trifluoromethoxy)phenyl]-1,2-oxazol-4-yl}methoxy)azepan-1-yl]-1,3-benzothiazole-6-carboxylate] was run?
Answer: 248 nM

Question: For `O=C(O)c1ccc2nc(N3CCCC(OCc4c(-c5ccccc5OC(F)(F)F)noc4C4CC4)CC3)sc2c1` (stereo not drawn) [Example 3-1B, 2-[4-({5-cyclopropyl-3-[2-(trifluoromethoxy)phenyl]-1,2-oxazol-4-yl}methoxy)azepan-1-yl]-1,3-benzothiazole-6-carboxylic acid], which EC50 is on record?
Answer: 7 nM

Question: `CCOC(=O)c1ccc2nc(N3CCCC(OCc4c(-c5ccccc5C(F)(F)F)noc4C4CC4)CC3)sc2c1` (stereo not drawn) [Example 3-2A, ethyl 2-[4-({5-cyclopropyl-3-[2-(trifluoromethyl)phenyl]-1,2-oxazol-4-yl}methoxy)azepan-1-yl]-1,3-benzothiazole-6-carboxylate] was tested. Which EC50 did it give?
Answer: 416 nM

Question: How did the EC50 turn out when `O=C(O)c1ccc2nc(N3CCCC(OCc4c(-c5ccccc5C(F)(F)F)noc4C4CC4)CC3)sc2c1` (stereo not drawn) [Example 3-2B, 2-[4-({5-cyclopropyl-3-[2-(trifluoromethyl)phenyl]-1,2-oxazol-4-yl}methoxy)azepan-1-yl]-1,3-benzothiazole-6-carboxylic acid] was run?
Answer: 8 nM

Question: With `CCOC(=O)c1ccc2nc(N3CCC(OCc4c(-c5c(Cl)cccc5Cl)noc4C(C)C)CC3)sc2c1` [Example 4A, Ethyl 2-(4-((3-(2,6-dichlorophenyl)-5-isopropylisoxazol-4-yl)methoxy)piperidin-1-yl)benzo[d]thiazole-6-carboxylate] as the compound, how does the EC50 read?
Answer: 960 nM

Question: How did the EC50 turn out when `CC(C)c1onc(-c2c(Cl)cccc2Cl)c1COC1CCN(c2nc3ccc(C(=O)O)cc3s2)CC1` [Example 4B, 2-(4-((3-(2,6-Dichlorophenyl)-5-isopropylisoxazol-4-yl)methoxy)piperidin-1-yl)benzo[d]thiazole-6-carboxylic acid] was run?
Answer: 7 nM

Question: For `O=C(O)c1ccc2nc(N3CCC(OCc4c(C5CCCCC5C(F)(F)F)noc4C4CC4)CC3)sc2c1` (stereo not drawn) [Example 5, 2-[4-({5-cyclopropyl-3-[2-(trifluoromethyl)cyclohexyl]-1,2-oxazol-4-yl}methoxy)piperidin-1-yl]-1,3-benzothiazole-6-carboxylic acid], which EC50 is on record?
Answer: 44 nM

Question: How did the EC50 turn out when `N#Cc1ccc2nc(N3CCC(OCc4c(-c5c(Cl)cccc5Cl)noc4C4CC4)CC3)sc2c1` [Example 6-1, 2-(4-((5-cyclopropyl-3-(2,6-dichlorophenyl)isoxazol-4-yl)methoxy)piperidin-1-yl)benzo[d]thiazole-6-carbonitrile] was run?
Answer: 132 nM

Question: For `NC(=O)c1ccc2nc(N3CCC(OCc4c(-c5c(Cl)cccc5Cl)noc4C4CC4)CC3)sc2c1` [Example 6-2, 2-(4-((5-cyclopropyl-3-(2,6-dichlorophenyl)isoxazol-4-yl)methoxy)piperidin-1-yl)benzo[d]thiazole-6-carboxamide], which EC50 is on record?
Answer: 19 nM

Question: For `Clc1cccc(Cl)c1-c1noc(C2CC2)c1COC1CCN(c2nc3ccc(-c4nn[nH]n4)cc3s2)CC1` [Example 6-3, 4-(((1-(6-(2H-tetrazol-5-yl)benzo[d]thiazol-2-yl)piperidin-4-yl)oxy)methyl)-5-cyclopropyl-3-(2,6-dichlorophenyl)isoxazole], which EC50 is on record?
Answer: 15 nM

Question: How did the EC50 turn out when `N#Cc1ccc2nc(N3CCC(OCc4c(-c5ccccc5OC(F)(F)F)noc4C4CC4)CC3)sc2c1` [Example 7-1, 2-[4-({5-cyclopropyl-3-[2-(trifluoromethoxy)phenyl]-1,2-oxazol-4-yl}methoxy)piperidin-1-yl]-1,3-benzothiazole-6-carbonitrile] was run?
Answer: 2200 nM

Question: `NC(=O)c1ccc2nc(N3CCC(OCc4c(-c5ccccc5OC(F)(F)F)noc4C4CC4)CC3)sc2c1` [Example 7-2, 2-[4-({5-cyclopropyl-3-[2-(trifluoromethoxy)phenyl]-1,2-oxazol-4-yl}methoxy)piperidin-1-yl]-1,3-benzothiazole-6-carboxamide] was tested. Which EC50 did it give?
Answer: 164 nM

Question: For `FC(F)(F)Oc1ccccc1-c1noc(C2CC2)c1COC1CCN(c2nc3ccc(-c4nn[nH]n4)cc3s2)CC1` [Example 7-3, 2-[4-({5-cyclopropyl-3-[2-(trifluoromethoxy)phenyl]-1,2-oxazol-4-yl}methoxy)piperidin-1-yl]-6-(2H-1,2,3,4-tetrazol-5-yl)-1,3-benzothiazole], which EC50 is on record?
Answer: 433 nM

Question: For `NC(=O)c1cc(F)c2nc(N3CCC(OCc4c(-c5ccccc5OC(F)(F)F)noc4C4CC4)CC3)sc2c1` [Example 7-4, 2-[4-({5-cyclopropyl-3-[2-(trifluoromethoxy)phenyl]-1,2-oxazol-4-yl}methoxy)piperidin-1-yl]-4-fluoro-1,3-benzothiazole-6-carboxamide], which EC50 is on record?
Answer: 272 nM

Question: For `N#Cc1ccc2nc(N3CCC(OCc4c(-c5c(F)cccc5Cl)noc4C4CC4)CC3)sc2c1` [Example 7-5, 2-(4-{[3-(2-chloro-6-fluorophenyl)-5-cyclopropyl-1,2-oxazol-4-yl]methoxy}piperidin-1-yl)-1,3-benzothiazole-6-carbonitrile], which EC50 is on record?
Answer: 836 nM

Question: How did the EC50 turn out when `Fc1cccc(Cl)c1-c1noc(C2CC2)c1COC1CCN(c2nc3ccc(-c4nn[nH]n4)cc3s2)CC1` [Example 7-6, 2-(4-{[3-(2-chloro-6-fluorophenyl)-5-cyclopropyl-1,2-oxazol-4-yl]methoxy}piperidin-1-yl)-6-(2H-1,2,3,4-tetrazol-5-yl)-1,3-benzothiazole] was run?
Answer: 154 nM

Question: For `COC(=O)CNC(=O)c1ccc2nc(N3CCC(OCc4c(-c5ccccc5OC(F)(F)F)noc4C4CC4)CC3)sc2c1` [Example 8-1A, Methyl 2-(2-(4-((5-cyclopropyl-3-(2-(trifluoromethoxy)phenyl)isoxazol-4-yl)methoxy)piperidin-1-yl)benzo[d]thiazole-6-carboxamido)acetate], which EC50 is on record?
Answer: 456 nM

Question: `O=C(O)CNC(=O)c1ccc2nc(N3CCC(OCc4c(-c5ccccc5OC(F)(F)F)noc4C4CC4)CC3)sc2c1` [Example 8-1B, 2-(2-(4-((5-cyclopropyl-3-(2-(trifluoromethoxy)phenyl)isoxazol-4-yl)methoxy)piperidin-1-yl)benzo[d]thiazole-6-carboxamido)acetic acid] was tested. Which EC50 did it give?
Answer: 20 nM

Question: How did the EC50 turn out when `O=C(NCCS(=O)(=O)O)c1ccc2nc(N3CCC(OCc4c(-c5ccccc5OC(F)(F)F)noc4C4CC4)CC3)sc2c1` [Example 9, 2-(2-(4-((5-cyclopropyl-3-(2-(trifluoromethoxy)phenyl)isoxazol-4-yl)methoxy)piperidin-1-yl)benzo[d]thiazole-6-carboxamido)ethanesulfonic acid] was run?
Answer: 87 nM

Question: With `O=C(O)c1ccc2nc(N3CCC(OCc4c(COc5c(Cl)cccc5Cl)noc4C4CC4)CC3)sc2c1` [Example 10-1, 2-(4-{[5-cyclopropyl-3-(2,6-dichlorophenoxymethyl)-1,2-oxazol-4-yl]methoxy}piperidin-1-yl)-1,3-benzothiazole-6-carboxylic acid] as the compound, how does the EC50 read?
Answer: 89 nM

Question: Which EC50 does the source give for `O=C(O)c1ccc2nc(N3CCC(OCc4c(CC5CCCCC5)noc4C4CC4)CC3)sc2c1` [Example 10-2, 2-(4-{[3-(cyclohexylmethyl)-5-cyclopropyl-1,2-oxazol-4-yl]methoxy}piperidin-1-yl)-1,3-benzothiazole-6-carboxylic acid] here?
Answer: 357 nM
